# Laboratory results from article PMC12188386, “Selective CBP/EP300 Bromodomain Inhibitors: Novel Epigenetic Tools to Counter TNF-α-Driven Inflammation” (JACS Au, 2025).
# Like-named read-outs stand apart in the source and are kept apart here.
# Legend:
# [1] = target: CBP-BRD; conditions: ITC; ref Picaud et al., 2015; Popp et al., 2016; read-out: Affinity to CBP-BRD, Kd; cited from earlier work
# [2] = test system: BRD4(1)-BRD; conditions: cited from earlier work
# [3] = kinetic solubility; assay type: physicochemical; conditions: PBS pH 7.4, 37°C, 90 min; ± st. dev. between technical replicates
# Experimental: Starting from an initial concentration of 100, 50 or 20 µM, a 2-fold serial dilution of the compound (10 mM stock in DMSO) was prepared in a mixture of ACN/Buffer (PBS, pH = 7.4) 2:8, with 1% DMSO. 350 µL was transferred to a 96-Well Plate (Greiner, UV-star) then UV absorption (240-400 nm, 10 nm steps) was measured. The absorption was blank-corrected and plotted against concentration. The wavelength (λ) providing the best fitting straight line […]
# (§1) was used as the calibration curve. To obtain saturated solutions of the compounds of interest, in duplicates 4.4 µL of a 10 or 5 mM stock in DMSO was added to 436 µL Buffer (PBS, pH = 7.4), to give a final concentration of 100 or 50 µM. Samples were incubated on a shaker (500 rpm) at 37°C for 90 minutes and then filtered (Millex-GV 13 mm, 0.22 µm). 304 µL of the filtrate was mixed with 76 µL of acetonitrile on a dilution plate, from which 350 µL was transferred to a UV-plate and UV-absorption was read using a SpectraMax M5 (Molecular devices). The absorbance was blank-corrected and compared to the calibration curve to […]
# (§2) solubility. The wavelengths used for the calibration curve are available in Table S4.
# (§3) Based on the known density of 12.5 % CAPTISOL® solution (d = 1.05755 g/mL at 25 °C), the precise weight of the resulting solution and so the required amount of water by weight was calculated. The water was added portion wise with agitation, vortexing and sonication cycles in between additions. The saturated solutions were then filtered (Millex-GV 13 mm, 0.22 µm). In duplicates, aliquots of the filtrates were taken and diluted with blank 12.5 % CAPTISOL® water solution in either a 1:14 (higher sol. compounds) or 1:7 (lower sol. compounds) ratio, 350 µL was transferred to a 96-Well Plate (Greiner, UV-star) then UV absorption (240-400 nm, 10 nm steps) was measured using a SpectraMax M5 (Molecular devices). The absorption was blank-corrected, compared to the calibration curve obtained during the solubility measurement method above and finally corrected for the dilution ratio to obtain the compound concentration in the saturated 12.5 % CAPTISOL® solution. The calculated concentrations are available in Table S4.
# (§4) BROMOscan™ assays (provided by Eurofins DiscoverX, US)1,2 […]
# coli host derived from the BL21 strain. E. coli were grown to log-phase and infected with T7 phage from a frozen stock (multiplicity of infection = 0.4) and incubated with shaking at 32°C until lysis (90-150 minutes). The lysates were centrifuged (5,000 x g) and filtered (0.2µm) to remove cell debris. Streptavidin-coated magnetic beads were treated with biotinylated small molecule or acetylated peptide ligands for 30 minutes at room temperature to generate affinity resins for bromodomain assays. The liganded beads were blocked with excess biotin and washed with blocking buffer (SeaBlock (Pierce), 1 % BSA, 0.05 % Tween 20, 1 mM DTT) to remove unbound ligand and to reduce non specific phage binding. Binding reactions were assembled by combining bromodomains, liganded affinity beads, and test compounds (see […]
# Sodium azide, 7.4 mM DTT). All reactions were performed in polypropylene 384-well plates in a final volume of 0.02 mL. The assay plates were incubated at room temperature with […]
# 20). The beads were then resuspended in elution buffer (1x PBS, 0.05% Tween 20, 2 µM non-
# [4] = test system: TNF-α-induced cytokine expression in THP-1 cells; experiment: cytokine mRNA expression by RT-qPCR; assay type: cell-based, human; conditions: 1 h co-treatment of THP-1 cells with 10 ng/mL TNF-α and 1 μM compound
# Experimental: For cytokine expression determination, 5x10^5 THP-1 cells were plated on 12 well plates the day prior to treatment with 10 ng/mL recombinant human TNF -α (aa 77-233) protein (R&D systems, 10291 -TA) and compounds at a final concentration of 0.1 % DMSO. In all cases, total
# RNA was extracted using the NucleoSpin® RNA kit (Machery -Nagel) and used for cDNA synthesis with the High -Capacity cDNA Reverse Transcription kit (Applied Biosystems). RT-qPCR reactions were performed using PowerSYBR™ green PCR Master Mix (Applied Biosystems) and a LightCycler® 480 (Roche). cDNA was denatured for 10 min at 95 °C followed by 40 cycles of 15 s at 95 °C and 1 min at 60 °C. Cp values were determined as the maximum of the second derivative and target gene expression was compared to that of hprt from the same sample using the 2-ΔCp method. Gene expression was then normalized to the average of the control samples from the same day, or all biological replicates. […]
# [5] = test system: TNF-α-induced IL-8 secretion from THP-1 cells; experiment: cytokine protein measurement (LEGENDPlex); assay type: cell-based, human; conditions: 10 ng/mL TNF-α, 1 μM compound
# Experimental: For cytokine expression determination, 5x10^5 THP-1 cells were plated on 12 well plates the day prior to treatment with 10 ng/mL recombinant human TNF -α (aa 77-233) protein (R&D systems, 10291 -TA) and compounds at a final concentration of 0.1 % DMSO. In all cases, total […]
# Cytokine protein measurements
# THP-1 cells were plated and treated as for the quantitative RT -PCR, then the cell culture medium was harvested by pelleting the cells (300g, 3min) and taking the supernatant .
# Cytokine protein concentrations were determined using the LEGENDPlexTM Human Inflammation Panel 1 (BioLegend) assay with 25 µL of culture medium following the manufacturer’s instructi ns. amp es were ana zed f w c t metr n an rtessa Biosciences), and data was analyzed using LEGENDPlex software (BioLegend).
# [6] = test system: MRC5 cells; experiment: viability assay (resazurin); assay type: cell-based; conditions: three-day treatment, concentration resulting in 70 % viability
# Experimental: MRC5 (2x10^3 cells/well) or THP-1 (8x10^3 cells/well) cells were plated onto 96 well plates and treated with compounds at a final DMSO concentration of 0.5 % (MRC5) or 0.1 % (THP-1).
# After 3 days of treatment, resazurin (Acros Organics) was added at a final concentration of 86 μ and incu ated for 2h15 (MRC5) or 3 h (THP-1). Fluorescence (ex. 560 nm, em. 590 nm) was read using a SpectraMax M5 (Molecular devices). GI30 values were calculated as the compound concentration resulting in 70 % viability compared to DMSO treated controls using a nonlinear regression fit using GraphPad Prism with the following equation: (Y=Bottom + (100-Bottom)/(1+(IC50/X)^HillSlope)). […]
# After 1.5 h, mice were injected with 10 µL of the prepared CAPTISOL […]
# foodpad and also intraperitoneally (for i.p. injection, the 10 µL of CAPTISOL solution was diluted to a final volume of 100 µL using PBS). Organs were collected 5 h after TNF-α […]
# LEGENDPlexTM assays (Mouse Pro-inflammatory Chemokine Panel and Mouse Inflammation Panel; Biolegend) were performed to monitor cytokine/chemokine expression. Briefly, popliteal LNs were collected and carefully disrupted in […] ice-cold phosphate buffer, minimizing cell rupture. The suspension was centrifuged at 1,500 rpm for 5 min, and the […]
# [7] = concentration in saturated 12.5% CAPTISOL solution; assay type: physicochemical; conditions: filtered 12.5 w/v% CAPTISOL in water, st. dev. between technical replicates (n=2)
# Experimental: as §1, §2
# Sample preparation in CAPTISOL® […]
# as §3, with “lower solubility (2) compounds respectively in a 12.5 w/v% CAPTISOL® solution in water. In a precisely tared vial, required amounts of compounds and CAPTISOL® were weighed out as solids. Based” for “Based”
# as §4
# coli host derived from the BL21 strain. […]
# [8] = test system: immune cell recruitment to the popliteal lymph node; experiment: TNF-α induced inflammation model, flow cytometry of pLN; assay type: in vivo, mouse; conditions: mice, flow cytometry 5 h post-injection of rmTNF-α, vs control group
# [9] = test system: CBP-BRD; conditions: TR-FRET; ref Crawford et al., 2016; read-out: Affinity to CBP-BRD, IC50 (Published); cited from earlier work
# [10] = target: CBP-BRD; set-up: method as in Pegg et al., 2017; Brooks et al., 2017; conditions: SPR, ref Pegg et al., 2017, Brooks et al., read-out: Affinity to CBP-BRD, Kd; cited from earlier work
structure (smiles),measurement,setting,value
CCC(=O)N1CCOc2c(cc(-c3ccc(OC)c(OC)c3)cc2OC[C@H]2CCCN(C)C2)C1 [I-CBP112],Kd,[1],151 nM
same,Sel. over BRD4(1)-BRD,"[2]; ref Picaud et al., 2015, Popp et al., 2016",37 fold
"CC(=O)N1CCc2c(c(Nc3ccc(-c4cnn(C)c4)cc3F)nn2[C@H]2CCOC2)C1 [GNE-272, reference compound]",Kin. Sol.,[3],75.1 ± 1.0 µM
same,"TNF-α-induced expression of il1β, il8, mcp-1 and tnf-α (mRNA)",[4],inhibited expression to a greater extent than the less potent but more soluble inhibitor 5
same,TNF-α-induced IL-8 protein secretion,[5],significantly reducing its TNF-α-induced secretion
same,GI30,[6],> 10000 nM
same,Conc. in 12.5% Captisol sol.,[7],715 ± 12 µM
same,"recruitment of lymphocytes (T and B cells), dendritic cells and neutrophils to the pLN",[8],significantly inhibited the recruitment of lymphocytes
same,IC50,[9],20 nM
CO[C@H]1CC[C@H](n2c([C@@H]3CCCC(=O)N3c3ccc(F)c(F)c3)nc3cc(-c4c(C)noc4C)ccc32)CC1 [CCS1477],Kd,[10],1.7 nM
same,Sel. over BRD4(1)-BRD,"[2]; ref Pegg et al., 2017, Brooks et al.",130 fold
